From patent publication US20040077674A1, “Mappicine analogs, intermediates in the synthesis of mappicine analogs and methods of synthesis of mappicine analogs” (priority 2002, published 2004)

Molecular target: T1, RNase H activity of HIV reverse transcriptase (Human immunodeficiency virus type 1 group M subtype B, UniProt P03366)
T1 construct: 2.5 nM of the p51/p66 RT heterodimer in the assay; made in house
Test: Fluorescence (FRET)-based RNase H assay of HIV reverse transcriptase
Format: biochemical, HIV-1
Conditions: 20 μM inhibitor concentration
Experimental: Recently, a fluorescence-based assay to perform screens in search of HIV RNase H inhibitors has been developed. The assay, which is carried out in 96-well microplates and is adaptable to robotics, is the first high-throughput screen for RNase H and is described in further detail in the Experimental section. HIV-1 RT and human RNase H were cloned, and thus comparative analysis of inhibitor action could be conducted simultaneously.
The assay for RNase H activity of HIV reverse transcriptase was the fluorescence-based assay described in detail in the Experimental section and discussed in U.S. Provisional Patent Application Serial No. 60/318,359. Assays were carried out in the absence and in the presence of mappicine analogs (10 μM or 20 μM final concentration). The results are reported as % residual activity, which is the RNase H activity of the enzyme in the presence of the mappicine analog divided by the RNase H activity of the enzyme in the absence of the mappicine analog, multiplied by 100. Alternatively, the results are reported as % inhibition, which is calculated as the ratio of the RNase H activity of the enzyme in the presence of the mappicine analog to the enzyme activity in the absence of the mappicine analog, multiplied by 100, and then subtracting this number from 100.
Assay for Ribonuclease H Activity Based on Fluorescence Resonance Energy Transfer (FRET)
Preparation of the Fluorophore-RNA/Quencher-DNA Hybrid Duplex Substrate.
The RNA/DNA hybrid duplex substrate for use in the assay comprises an RNA oligonucleotide of sequence 5′-GAU CUG AGC CUG GGA GCU-3′, modified at the 3′-end with Aminolink-2 and derivatized with fluorescein isothiocyanate, to provide a modified RNA oligonucleotide of the sequence 5′-GAU CUG AGC CUG GGA GCU-fluorescein-3′, annealed to a complementary DNA oligonucleotide of the sequence 5′-AGC TCC CAG GCT CAG ATC-3′ modified at the 5′-end with Aminolink-2 and derivatized with the FRET acceptor DABCYL succinimidyl ester, to provide a modified DNA oligonucleotide of the sequence 5′-DABCYL-AGC TCC CAG GCT CAG ATC-3′.
To prepare the 3′-fluorescein-RNA/5′-DABCYL-DNA hybrid duplex substrate, a known amount of 3′-fluorescein-RNA was dissolved in 20 mM Tris buffer (pH 8.0, 37° C.) to provide a final concentration of 5 μM. Two equivalents of the 5′-DABCYL-DNA oligonucleotide were added, and the mixture was heated to 90° C. for 5 min and cooled slowly to room temperature to allow duplex formation. The positioning of the fluorescein donor at the 3′-end of the RNA oligonucleotide and the DABCYL acceptor at the 5′-end of the DNA oligonucleotide provides a very close proximity of the donor and acceptor that results in a very intense quenching of the fluorescein emission in the intact RNA/DNA hybrid duplex substrate due to the spectral overlap of the fluorescence emission of fluorescein with the absorption spectrum of DABCYL. In addition, DABCYL is non-fluorescent, and thus cannot contribute any light emission. Both of these factors result in a very low background and provide a high signal-to-noise in the assay measurements. The ratio of the donor fluorescence in the absence and in the presence of its quencher is approximately fifteen-fold.
Microplate Assay Protocol for the Measurement of RNase H Activity Using the RNA/IDNA Hybrid Duplex Substrate.
Reaction assay mixtures contained 5 μl of a stock solution of 2.5 μM RNA/DNA hybrid duplex substrate added to 85 μl of assay buffer (50 mM Tris, pH 8.0, 37° C., containing 60 mM KCl and 2.5 mM MgCl2), prepared in the wells of a 96-well fluorescence microtiter plate, and warmed to 37° C. using the temperature control of the SpectraMax Gemini XS microplate spectrofluorometer (Molecular Devices). Reactions were started by the addition of 5 μl of a solution of recombinant HIV-1 reverse transcriptase (usually providing a final concentration of 2.5 nM of the p51/p66 RT heterodimer in the assay), and mixing using the automatic mixing function of the microplate spectrofluorometer. […]

Going from `CCCCc1c2c(nc3ccc(OC(F)(F)F)cc13)-c1cc(C(C)O)c(C)c(=O)n1C2` (stereo not drawn) [Compound 1.6.7, 12-Butyl-7-(1-hydroxyethyl)-8-methyl-2-trifluoromethoxy-11H-indolizino[1,2-b]quinolin-9-one] to `Cc1c(C(C)O)cc2n(c1=O)Cc1c-2nc2ccc(OC(F)(F)F)cc2c1-c1ccccc1` (stereo not drawn) [Compound 1.8.7, 7-(1-Hydroxyethyl)-8-methyl-12-phenyl-2-trifluoromethoxy-11H-indolizino[1,2-b]quinolin-9-one], the inhibition at 20 µM rises from 75% to 80%.

Compared with `Cc1ccc2nc3c(c(-c4ccccc4)c2c1)Cn1c-3cc(C(C)O)c(C)c1=O` (stereo not drawn) [Compound 1.8.9, 7-(1-Hydroxyethyl)-2,8-dimethyl-1 2-phenyl-11H-indolizino[1,2-b]quinolin-9-one], `CCCC(O)c1cc2n(c(=O)c1C)Cc1c-2nc2ccc(C)cc2c1-c1ccccc1` (stereo not drawn) [Compound 2.8.9, 7-(1-Hydroxybutyl)-2,8-dimethyl-1 2-phenyl-11H-indolizino[1,2-b]quinolin-9-one] is higher in inhibition at 20 µM: 75% for the first, 78% for the second.

Compared with `CCCC(O)c1cc2n(c(=O)c1C)Cc1c-2nc2ccccc2c1-c1ccccc1` (stereo not drawn) [Compound 2.8.1, 7-(1-Hydroxybutyl)-8-methyl-12-phenyl-11H-indolizino [1,2-b]quinolin-9-one], `CCC(C)C(O)c1cc2n(c(=O)c1C)Cc1c-2nc2ccccc2c1-c1ccccc1` (stereo not drawn) [Compound 4.8.1, 7-(1-Hydroxy-2-methylbutyl)-8-methyl-1 2-phenyl-11H-indolizino[1,2-b]quinolin-9-one] is lower in inhibition at 20 µM: 83% for the first, 80% for the second.

Compared with `CCCCCc1c2c(nc3c(F)cccc13)-c1cc(C(O)CC)c(C)c(=O)n1C2` (stereo not drawn) [Compound 3.7.8, 4-Fluoro-7-(1-hydroxypropyl)-8-methyl-12-pentyl-1 1H-indolizino [1,2-b]quinolin-9-one], `CCCCCc1c2c(nc3ccc(C)cc13)-c1cc(C(O)CC)c(C)c(=O)n1C2` (stereo not drawn) [Compound 3.7.9, 7-(1-Hydroxypropyl)-2,8-dimethyl-1 2-pentyl-11H-indolizino[1,2-b]quinolin-9-one] is lower in inhibition at 20 µM: 82% for the first, 75% for the second.

Going from `CCCCCc1c2c(nc3ccc(CC)cc13)-c1cc(C(O)C(C)CC)c(C)c(=O)n1C2` (stereo not drawn) [Compound 4.7.5, 2-Ethyl-7-(1-hydroxy-2-methylbutyl)-8-methyl-1 2-pentyl-11H-indolizino[1,2-b]quinolin-9-one] to `CCCCCc1c2c(nc3ccc(F)cc13)-c1cc(C(O)C3CCCCC3)c(C)c(=O)n1C2` (stereo not drawn) [Compound 6.7.2, 7-(Cyclohexylhydroxymethyl)-2-fluoro-8-methyl-12-pentyl-11H-indolizino[1,2-b]quinolin-9-one], the inhibition at 20 µM falls from 100% to 76%.

First: CCc1c2c(nc3ccc(C(F)(F)F)cc13)-c1cc(C(O)C(C)C)c(C)c(=O)n1C2 (stereo not drawn) [Compound 5.4.4, 1 2-Ethyl-7-(1-hydroxy-2-methylpropyl)-8-methyl-2-trifluoromethyl-11H-indolizino[1,2-b]quinolin-9-one]
Second: Cc1c(C(O)C2CCCCC2)cc2n(c1=O)Cc1c-2nc2ccc(C(F)(F)F)cc2c1-c1ccccc1 (stereo not drawn) [Compound 6.8.4, 7-(Cyclohexylhydroxymethyl)-8-methyl-12-phenyl-2-trifluoromethyl-11H-indolizino[1,2-b]quinolin-9-one]
The inhibition at 20 µM of the first is higher: 87% for the first, 81% for the second.

Going from `CCCCc1c2c(nc3c1cn1c(=O)c(C)c(C(O)C(C)C)cc31)=CC=C(OC)C2` (stereo not drawn) [Compound 5.6.3, 12-Butyl-7-(1-hydroxy-2-methylpropyl)-2-methoxy-8-methyl-1H-indolizino[1,2-b]quinolin-9-one] to `Cc1c(C(O)C2CCCCC2)cc2n(c1=O)Cc1c-2nc2ccc(OC(F)(F)F)cc2c1-c1ccccc1` (stereo not drawn) [Compound 6.8.7, 7-(Cyclohexylhydroxymethyl)-8-methyl-1 2-phenyl-2-trifluoromethoxy-11H-indolizino[1,2-b]quinolin-9-one], the inhibition at 20 µM falls from 90% to 87%.

First: CCCCc1c2c(nc3ccc(OC)cc13)-c1cc(C(O)CCC)c(C)c(=O)n1C2 (stereo not drawn) [Compound 2.6.3]
Second: CCCCCc1c2c(nc3ccc(OC)cc13)-c1cc(C(O)CCC)c(C)c(=O)n1C2 (stereo not drawn) [Compound 2.7.3]
The “% inhibition of RNase H at 20 μM” value of the first is higher: 67% for the first, 60% for the second.

First: CCCCc1c2c(nc3ccc(OC)cc13)-c1cc(C(O)CC)c(C)c(=O)n1C2 (stereo not drawn) [Compound 3.6.3]
Second: CCCCCc1c2c(nc3ccc(OC)cc13)-c1cc(C(O)C(C)CC)c(C)c(=O)n1C2 (stereo not drawn) [Compound 4.7.3]
The “% inhibition of RNase H at 20 μM” value of the first is higher: 66% for the first, 60% for the second.

First: CCCCc1c2c(nc3ccc(C(F)(F)F)cc13)-c1cc(C(O)CC)c(C)c(=O)n1C2 (stereo not drawn) [Compound 3.6.4]
Second: CCCCCc1c2c(nc3ccc(C(F)(F)F)cc13)-c1cc(C(O)C(C)CC)c(C)c(=O)n1C2 (stereo not drawn) [Compound 4.7.4]
The “% inhibition of RNase H at 20 μM” value of the first is higher: 62% for the first, 55% for the second.

First: CCC(O)c1cc2n(c(=O)c1C)Cc1c-2nc2ccccc2c1-c1ccccc1 (stereo not drawn) [Compound 3.8.1]
Second: CCC(C)C(O)c1cc2n(c(=O)c1C)Cc1c-2nc2ccc(C)cc2c1-c1ccccc1 (stereo not drawn) [Compound 4.8.9]
The “% inhibition of RNase H at 20 μM” value of the first is higher: 74% for the first, 55% for the second.

Going from `CCC(C)C(O)c1cc2n(c(=O)c1C)Cc1cc3cc(OC(F)(F)F)ccc3nc1-2` (stereo not drawn) [Compound 4.1.7] to `CCC(C)C(O)c1cc2n(c(=O)c1C)Cc1c-2nc2ccc(C(F)(F)F)cc2c1-c1ccccc1` (stereo not drawn) [Compound 4.8.4], the “% inhibition of RNase H at 20 μM” value rises from 55% to 74%.

First: CCc1c2c(nc3ccc(C)cc13)-c1cc(C(O)C(C)CC)c(C)c(=O)n1C2 (stereo not drawn) [Compound 4.4.9]
Second: CCCCCc1c2c(nc3ccc(F)cc13)-c1cc(C(O)C(C)CC)c(C)c(=O)n1C2 (stereo not drawn) [Compound 4.7.2]
The “% inhibition of RNase H at 20 μM” value of the first is higher: 60% for the first, 58% for the second.

First: CCCc1c2c(nc3c(F)cccc13)-c1cc(C(O)C(C)CC)c(C)c(=O)n1C2 (stereo not drawn) [Compound 4.5.8]
Second: CCCc1c2c(nc3c(F)cccc13)-c1cc(C(O)CCC3CCCCC3)c(C)c(=O)n1C2 (stereo not drawn) [Compound 7.5.8]
The “% inhibition of RNase H at 20 μM” value of the first is lower: 55% for the first, 82% for the second.

Compared with `CCCCc1c2c(nc3ccc(CC)cc13)-c1cc(C(O)C(C)C)c(C)c(=O)n1C2` (stereo not drawn) [Compound 5.6.5], `CCCCCc1c2c(nc3ccc(OC)cc13)-c1cc(C(O)C3CCCCC3)c(C)c(=O)n1C2` (stereo not drawn) [Compound 6.7.3] is lower in “% inhibition of RNase H at 20 μM” value: 100% for the first, 65% for the second.

First: Cc1ccc2nc3c(c(-c4ccccc4)c2c1)Cn1c-3cc(C(O)C(C)C)c(C)c1=O (stereo not drawn) [Compound 5.8.9]
Second: CCc1c2c(nc3ccccc13)-c1cc(C(O)C3CCCCC3)c(C)c(=O)n1C2 (stereo not drawn) [Compound 6.4.1]
The “% inhibition of RNase H at 20 μM” value of the first is higher: 69% for the first, 65% for the second.

Going from `Cc1ccc2nc3c(cc2c1)Cn1c-3cc(C(O)C2CCCCC2)c(C)c1=O` (stereo not drawn) [Compound 6.1.9] to `CCc1c2c(nc3ccc(F)cc13)-c1cc(C(O)C3CCCCC3)c(C)c(=O)n1C2` (stereo not drawn) [Compound 6.4.2], the “% inhibition of RNase H at 20 μM” value rises from 65% to 75%.

First: CCc1c2c(nc3ccc(OC)cc13)-c1cc(C(O)C3CCCCC3)c(C)c(=O)n1C2 (stereo not drawn) [Compound 6.4.3]
Second: CCc1c2c(nc3ccc(C(F)(F)F)cc13)-c1cc(C(O)C3CCCCC3)c(C)c(=O)n1C2 (stereo not drawn) [Compound 6.4.4]
The “% inhibition of RNase H at 20 μM” value of the first is lower: 60% for the first, 65% for the second.

Going from `CCCCCc1c2c(nc3ccccc13)-c1cc(C(O)C3CCCCC3)c(C)c(=O)n1C2` (stereo not drawn) [Compound 6.7.1] to `CCCCCc1c2c(nc3ccc(C(F)(F)F)cc13)-c1cc(C(O)C3CCCCC3)c(C)c(=O)n1C2` (stereo not drawn) [Compound 6.7.4], the “% inhibition of RNase H at 20 μM” value falls from 71% to 70%.

In the case of `CCc1c2c(nc3c(F)cccc13)-c1cc(C(O)CCC3CCCCC3)c(C)c(=O)n1C2` (stereo not drawn) [Compound 7.4.8], the “% inhibition of RNase H at 20 μM” value is reported as 95%.
